Data taken from PubChem BioAssay (NCI).
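96-well plates; 48 h exposure; 5 concentrations. Endpoints by linear interpolation between flanking doses. Not reached: highest tested concentration assigned. The concentration for 50% growth inhibition is given as GI50. TGI marks complete inhibition of growth.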

How the values were obtained:
Assay in all cases: NCI-60 cell line screen, 48 h
HOP-62 NSCLC = system: HOP-62 NSCLC
HCT-15 colon = system: HCT-15 colon
HL-60(TB) leukemia = system: HL-60(TB) leukemia
RXF 393 renal = system: RXF 393 renal
KM20L2 colon = system: KM20L2 colon
UACC-257 melanoma = system: UACC-257 melanoma
NCI-H522 lung = system: NCI-H522 lung
OVCAR-5 ovarian = system: OVCAR-5 ovarian
M19-MEL melanoma = system: M19-MEL melanoma
SF-539 CNS = system: SF-539 CNS

Row | Compound | GI50 (HOP-62 NSCLC) [µM] | TGI (HOP-62 NSCLC) [µM] | GI50 (HCT-15 colon) [µM] | TGI (HCT-15 colon) [µM] | GI50 (HL-60(TB) leukemia) [µM] | TGI (HL-60(TB) leukemia) [µM] | GI50 (RXF 393 renal) [µM] | TGI (RXF 393 renal) [µM] | GI50 (KM20L2 colon) [µM] | TGI (KM20L2 colon) [µM] | GI50 (UACC-257 melanoma) [µM] | TGI (UACC-257 melanoma) [µM] | GI50 (NCI-H522 lung) [µM] | TGI (NCI-H522 lung) [µM] | GI50 (OVCAR-5 ovarian) [µM] | TGI (OVCAR-5 ovarian) [µM] | GI50 (M19-MEL melanoma) [µM] | TGI (M19-MEL melanoma) [µM] | GI50 (SF-539 CNS) [µM] | TGI (SF-539 CNS) [µM]
1 | CCC[CH2][Sn]([CH2]CCC)([O]C(=O)c1cc(F)ccc1F)[O]C(=O)c1cc(F)ccc1F | 2.39 | 4.04 | 1.18 | 2.44 | 0.506 | 3.09 | 0.326 | 1.12 | 1.76 | 3.37 | 1.24 | 2.49 | 0.108 | 0.23 | 1.91 | 3.31 | 0.537 | 1.8 | 1.4 | 2.81
2 | Cc1ccc(C)c(NC(=O)C(=O)C2C(=O)N(c3ccccc3)N=C2N)c1 (stereo not drawn) | – | > 100 | – | > 100 | – | > 100 | – | > 100 | – | > 100 | – | > 100 | – | > 100 | – | > 100 | – | > 100 | – | > 100
3 | CN(C)c1cc2c(Nc3ccc4c(cnn4Cc4ccccc4)c3)ncnc2cn1 | 8.35 | > 23.9 | 9.6 | > 25 | 8.93 | 23.8 | 8.3 | > 20.8 | – | – | 13.2 | > 25 | 1.82 | > 25 | 9.2 | > 25 | – | – | 10.1 | > 25
4 | O=C1NC2C3CC(OCc4ccccc4)(OCc4ccccc4)C2OC3O1 (stereo not drawn) | – | > 50 | – | > 50 | – | > 50 | – | – | – | – | – | > 50 | – | – | – | > 50 | – | > 50 | – | > 50
5 | O=C(O)/C(Cl)=C(Cl)/C=N/NC(=O)c1cc2ccccc2cc1O | – | > 100 | – | > 100 | – | > 100 | – | – | – | 87.2 | – | 65.6 | – | 77 | – | 61.5 | – | 75.4 | – | > 100
6 | Cc1ccc(NC(=S)C#N)c(C)c1 | – | > 100 | – | > 100 | – | > 71.2 | – | > 100 | – | – | – | > 100 | – | > 100 | – | > 100 | – | – | – | > 100
7 | Cc1ccnc2c(NC(C)CCCN)cc(O)c(O)c12 (stereo not drawn) | 26.1 | > 100 | 27 | > 100 | 2.12 | 5.33 | 32.3 | > 100 | – | – | 22.3 | 55.5 | 2.14 | 9.44 | 13.1 | 40.7 | – | – | 18.5 | 41.9
8 | Cc1cc(Cl)ccc1N=C1NC(=O)C(CC(=O)Nc2cccc(C)c2C)S1 (stereo not drawn) | – | 62.6 | – | > 100 | – | – | – | – | – | 87.2 | – | > 100 | – | – | – | > 100 | – | > 100 | – | 43.4
